Data from patent US7943606B2, “Compositions and methods to control abnormal cell growth” (CanCure Laboratories, LLC, priority 2005, dated 2011).
Where two headings read alike, the source gives them in different places.

Key:
T47D cells = assay: Viability of T47D breast cancer cells; type: cell-based, human; settings: Homo sapiens, T47D, 72 hours, MTT
Procedure: (§1) To quantify cell death, around the time when significant and characteristic morphological changes took place, cells were pulse-labeled for 10 minutes with [^3H]thymidine to measure DNA activity as described elsewhere [Tomono, M. and Kiss, Z. (1995), “Ethanol enhances the stimulatory effects of insulin and insulin-like growth factor-I on DNA synthesis in NIH 3T3 fibroblasts,” Biochem. Biophys. Res. Commun. 208, 63-67]. Also, cells were collected as suspensions using trypsin, an established method in cell biology, followed by re-plating of cells in fresh tissue culture medium. If no viable cells were obtained after one week in culture, it meant that the cells at the time of re-plating were dead. Survival values obtained with untreated cells were considered 100%. For the determination of relative number of viable cells after treatments, in most cases the MTT assay was used. This calorimetric assay is based on the ability of living cells, but not dead cells, to reduce 3-(4,5-dimethyl thiazol-2-yl)-2,5-diphenyltetrazolium bromide [Carmichael, J, De Graff, W. G., Gazdar, A. F., Minna, J. D. and Mitchell, J. B. (1987), “Evaluation of tetrazolium-based semi-automated calorimetric assay: Assessment of chemosensitivity testing,” Cancer Res. 47, 936-942]. For this assay, cells were plated in 96-well plates, and the MTT assay was performed both in untreated and treated cell cultures. The MTT assay also was performed at the start of treatments to allow assessment of proliferation rates in the control and treated cell cultures.
About 40% confluent cultures of T47D cells, cultured in 12-well plates in RPMI 1640 medium supplemented with 0.2 IU bovine insulin and 10% FBS, were either untreated (FIG. 4A), or were treated with 100 μM CCDTHT (CCompound3) for 72 hours (FIG. 4B).
(§2) NIH3T3, T47D, A-431, HT-29, and MEL-28 cells were cultured as indicated earlier. CaOV-3 human ovarian cancer cells were cultured in DMEM containing 10% FBS. ZR-75-1 human estrogen receptor-positive breast cancer cells were maintained in RPMI 1640 medium supplemented with 10% FBS. HTB-157 human fetal fibroblasts, MEL-24 human malignant melanoma cells, Hep G2 human hepatoblastoma cells, and CaCO-2 human colon adenocarcinoma cells were maintained in Eagles's MEM containing 10% FBS. MB-231 human estrogen receptor-negative breast cancer cells were maintained in Leibovitz's L-15 medium supplemented with 10% FBS. Cells were seeded into 96-well plates and treated at ˜70-90% confluency. Two hours prior to treatments the medium was changed for fresh 10% serum medium, and then the cells were incubated for 10 days in the absence (□) or presence of 50 μM CCDTHT ? or 100 μM CCDTHT (▪). The medium was changed and the cells were re-treated on days 3 and 6. The MTT assay was used to determine cell viability on day 10. The data, shown in FIG. 6, are the mean±std. dev. of 8 incubations in one experiment.
(§3) The MRC-5 cell line is derived from normal lung tissue of a […] fetus. MRC-5 cells were maintained and treated in Eagles Medium with Hanks' BSS containing 10% fetal bovine serum. The T47D cells were maintained and treated in RPMI 1640 medium supplemented with 0.2 IU bovine insulin and 10% fetal bovine serum. The CaOV-3 human ovarian cancer cells were cultured in Dulbecco's modified Eagle's medium containing 10% fetal bovine serum. The cells were seeded in 96-well plates either at 10,000 cells per well or 30,000 cells per well to examine the antiproliferative and cytotoxic effects of various CC compounds, respectively. The cells were incubated for 24 hours, then the medium was changed followed by the treatments of cultures 2 hours after the medium change. At this point, cell cultures seeded at 10,000 cells per well and 30,000 cells per well were 25-35% and 80-90% confluent, respectively.

CaOV-3 cells = assay: Viability of CaOV-3 ovarian cancer cells (MTT assay); type: cell-based, human; settings: Homo sapiens, Caov-3, 72 hours, MTT
Procedure: as §1
as §2, with “experiment. (The experiment was repeated twice with similar results).” for “experiment.”
as §3, with “confluent, respectively. Incubations were continued for 72 hours followed by the MTT assay. The data, shown in TABLE 2, indicate the inhibitory concentrations of CC compounds (IC50) required for 50% decrease in the number of viable cells. These numbers are calculated from the mean of 4 incubations in one experiment (the experiment was repeated once with similar results). […]” for “confluent, respectively.”

[1] = Viability of MRC-5 normal lung fibroblasts (MTT assay); type: cell-based; settings: human
Procedure: as §1
as §3, with “confluent, respectively. Incubations were continued for 72 hours followed by the MTT assay. The data, shown in TABLE 2, indicate the inhibitory concentrations of CC compounds (IC50) required for 50% decrease in the number of viable cells. These numbers are calculated from the mean of 4 incubations in one experiment (the experiment was repeated once with similar results).” for “confluent, respectively.”

MRC-5 cells = assay: as above; type: cell-based; settings: Homo sapiens, MRC5; 10,000 cells per well (25-35% confluent), 72 hours, MTT; read-out: IC50 values, Antiproliferative, MRC-5
Procedure: as §1
as §3, with “confluent, respectively. Incubations were continued for 72 hours followed by the MTT assay. The data, shown in TABLE 2, indicate the inhibitory concentrations of CC compounds (IC50) required for 50% decrease in the number of viable cells. These numbers are calculated from the mean of 4 incubations in one experiment (the experiment was repeated once with similar results).” for “confluent, respectively.”

MCF-7 cells = assay: Viability of MCF-7 breast cancer cells; type: cell-based, human; settings: 2 mM Etn + 100 μM CCDTHT, 72 hours, MTT
Procedure: as §1
About 50% confluent cultures of MCF-7 cells, cultured in 12-well plates in Dulbecco's modified Eagle's medium (DMEM) supplemented with 10% FBS, were either untreated (FIG. 3A), or were treated with 100 μM CCDTHT (CCompound3) for 72 hours (FIG. 3B). […] This experiment was repeated three times with similar results. In some experiments, cells from the CCDTHT-treated cultures were seeded into 96-well plates, and the MTT assay was performed 96 hours later to test for viable cells.
The NIH 3T3 (normal) mouse fibroblast, A431 human epidermoid adenocarcinoma, and MCF-7 human breast cancer cells were cultured in DMEM medium containing 10% FBS. The MEL-28 human melanoma cells were cultured in MEM medium containing 10% FBS. The HT-29 human colon adenocarcinoma cells were cultured in McCoy's 5a medium containing 10% FBS. The A549 human lung carcinoma cells were maintained in Ham's F12K medium containing 10% FBS. Cells were seeded into 96-well plates and treated at ˜70-90% confluency. Two hours before treatments the medium was changed for fresh 10% serum medium, and then the cells were incubated for 72 hours in the presence of 0-200 μM of CCompound1 (●) or CCompound3 (CCDTHT) (▴), as indicated. The MTT assay was used to determine cell viability after treatments. The values, shown in FIGS. 5A-5F and expressed as percent decrease in viability compared to the untreated control cells, are the mean±std. dev. of 8 incubations in one experiment. Similar results were obtained in another experiment.
NIH 3T3, AN3CA, HT-29, MEL-28, and MCF-7 cells were cultured as described earlier. Cells were seeded into 96-well plates; when cells were ˜80-90% confluent, the medium was changed for fresh 10% serum-containing medium, followed by incubations for 72 hours in the absence (□) or presence of 100 μM CCDTHT ? , 2 mM ethanolamine (Etn) ? , or 100 μM CCDTHT+2 mM Etn (▪). The MTT assay was used to determine cell viability. […]

[2] = 10,000 cells per well (25-35% confluent), read-out: IC50 values, Antiproliferative, T47D
[3] = 30,000 cells per well (80-90% confluent), read-out: IC50 values, Cytotoxic, T47D
[4] = 10,000 cells per well (25-35% confluent), read-out: IC50 values, Antiproliferative, CaOV-3
[5] = 30,000 cells per well (80-90% confluent), read-out: IC50 values, Cytotoxic, CaOV-3
[6] = MRC-5 normal lung fibroblasts, 30,000 cells per well (80-90% confluent), 72 hours, MTT, read-out: IC50 values, Cytotoxic, MRC-5

SMILES	IC50 (T47D cells; [2])	IC50 (T47D cells; [3])	IC50 (CaOV-3 cells; [4])	IC50 (CaOV-3 cells; [5])	IC50 at 72 h [1]	IC50 (MRC-5 cells)	IC50 at 72 h [1, 6]	effect of Etn on CCDTHT-induced reduction in cell viability, MCF-7 (MCF-7 cells)
C=CC[N+](C)(C)CC/C=C1/c2ccccc2Sc2ccc(C)cc21 [CCcompound24, N,N-Dimethyl-N-allyl-3-(2-methyl-9H-thioxanthen-9-ylidene)-propane-1-aminium bromide]	56 µM	59 µM	69 µM	29 µM	207 µM	113 µM	–	–
CC[N+](CC)(CC)CC/C=C1/c2ccccc2Sc2ccc(C)cc21 [CCcompound25, N,N,N-triethyl-3-(2-methyl-9H-thioxanthen-9-ylidene)-propane-1-aminium-iodide]	18 µM	39 µM	47 µM	66 µM	–	118 µM	123 µM	–
C=CC[N+](CC)(CC)CC/C=C1/c2ccccc2Sc2ccc(C)cc21.[Br-] [CCcompound26, N,N-diethyl-N-allyl-3-(2-methyl-9H-thioxanthen-9-ylidene)-propane-1-aminium-bromide]	11 µM	8 µM	57 µM	59 µM	98 µM	86 µM	–	–
NCCO [Etn, ethanolamine, reference compound]	–	–	–	–	–	–	–	clearly prevented
CC[N+](C)(CC)CC/C=C1/c2ccccc2Sc2ccc(C)cc21 [CCcompound23, N,N-Diethyl-N-methyl-3-(2-methyl-9H-thioxanthen-9-ylidene)-propane-1-aminium iodide]	48 µM	38 µM	14 µM	32 µM	–	139 µM	163 µM	–
CC[N+](C)(C)CC/C=C1/c2ccccc2Sc2ccc(C)cc21 [CCcompound22, N,N-Dimethyl-N-ethyl-3-(2-methyl-9H-thioxanthen-9-ylidene)-propane-1-aminium iodide]	65 µM	65 µM	61 µM	36 µM	–	140 µM	215 µM	–
Cc1ccc2c(c1)/C(=C\CC[N+](C)(C)C)c1ccccc1S2 [CCcompound21, N,N,N-trimethyl-3-(2-methyl-9H-thioxanthen-9-ylidene)-propane-1-aminium iodide]	76 µM	59 µM	32 µM	29 µM	–	113 µM	164 µM	–
